Laboratory results from patent US10052310B2, “Separase inhibitors and uses thereof” (Baylor College of Medicine, priority 2013, dated 2018).
Entries after “also recorded” stand apart in the source; their conditions may differ. Read-outs that look alike come from different tables or passages of the source.

Assays:
human cancer cell lines = assay: MTT assay, summary over all cell lines; format: cell-based; settings: all cell lines of Table 1, 72 h, read-out: range of IC50 over the different cell lines
Description: Applicants used the MTT assay to test the inhibitory effect of Sepin-1 on the growth of a variety of human cancer cell lines, including leukemia, breast cancer and neuroblastoma.
The inhibitory effect of Sepin-1 on cell growth was assayed using the 3-(4,5-dimethylthiazol-2yl)-2,5-diphenyl-tetrazolium bromide (MTT) colorimetric dye reduction method (Cancer Chemother. Pharmacol., 2006, 58, 13-23). One hundred thirty-five μl of exponentially growing cancer cells were plated at a density of 0.4-1.0×10^5 cells/well in a 96-well microtiter plate. After 16 h, Sepin-1 at specified concentrations was added to each well. After 72 h of continuous drug exposure, 15 μl of 5 mg/ml MTT was added to each well and the plates were incubated for 4 h at 37° C. Medium was replaced with 150 μl of DMSO to solubilize the formazan, and the optical density (OD) was measured at 550 nm using a microplate spectrophotometer (Anthos Analytical, Durham, N.C., USA). Cell viability was calculated by subtracting the background OD of media alone from the OD of test wells, then dividing by the OD of the control (untreated) wells. Replicates of 3 wells were used for each drug concentration. The in vitro cytotoxicity assay was repeated once and the IC50 reported was the average of two independent experiments.

Separase = molecular target: T1, Separase (Homo sapiens, UniProt Q14674); assay: Fluorogenic Separase activity assay using (Rad21)2-Rh110 as substrate; format: biochemical; settings: for IC50: (Rad21)2-Rh110 substrate
T1 construct: made in house; host or cells: 293T cells; released from IgG-Agarose by TEV protease
T1 sequence (Q14674 whole entry): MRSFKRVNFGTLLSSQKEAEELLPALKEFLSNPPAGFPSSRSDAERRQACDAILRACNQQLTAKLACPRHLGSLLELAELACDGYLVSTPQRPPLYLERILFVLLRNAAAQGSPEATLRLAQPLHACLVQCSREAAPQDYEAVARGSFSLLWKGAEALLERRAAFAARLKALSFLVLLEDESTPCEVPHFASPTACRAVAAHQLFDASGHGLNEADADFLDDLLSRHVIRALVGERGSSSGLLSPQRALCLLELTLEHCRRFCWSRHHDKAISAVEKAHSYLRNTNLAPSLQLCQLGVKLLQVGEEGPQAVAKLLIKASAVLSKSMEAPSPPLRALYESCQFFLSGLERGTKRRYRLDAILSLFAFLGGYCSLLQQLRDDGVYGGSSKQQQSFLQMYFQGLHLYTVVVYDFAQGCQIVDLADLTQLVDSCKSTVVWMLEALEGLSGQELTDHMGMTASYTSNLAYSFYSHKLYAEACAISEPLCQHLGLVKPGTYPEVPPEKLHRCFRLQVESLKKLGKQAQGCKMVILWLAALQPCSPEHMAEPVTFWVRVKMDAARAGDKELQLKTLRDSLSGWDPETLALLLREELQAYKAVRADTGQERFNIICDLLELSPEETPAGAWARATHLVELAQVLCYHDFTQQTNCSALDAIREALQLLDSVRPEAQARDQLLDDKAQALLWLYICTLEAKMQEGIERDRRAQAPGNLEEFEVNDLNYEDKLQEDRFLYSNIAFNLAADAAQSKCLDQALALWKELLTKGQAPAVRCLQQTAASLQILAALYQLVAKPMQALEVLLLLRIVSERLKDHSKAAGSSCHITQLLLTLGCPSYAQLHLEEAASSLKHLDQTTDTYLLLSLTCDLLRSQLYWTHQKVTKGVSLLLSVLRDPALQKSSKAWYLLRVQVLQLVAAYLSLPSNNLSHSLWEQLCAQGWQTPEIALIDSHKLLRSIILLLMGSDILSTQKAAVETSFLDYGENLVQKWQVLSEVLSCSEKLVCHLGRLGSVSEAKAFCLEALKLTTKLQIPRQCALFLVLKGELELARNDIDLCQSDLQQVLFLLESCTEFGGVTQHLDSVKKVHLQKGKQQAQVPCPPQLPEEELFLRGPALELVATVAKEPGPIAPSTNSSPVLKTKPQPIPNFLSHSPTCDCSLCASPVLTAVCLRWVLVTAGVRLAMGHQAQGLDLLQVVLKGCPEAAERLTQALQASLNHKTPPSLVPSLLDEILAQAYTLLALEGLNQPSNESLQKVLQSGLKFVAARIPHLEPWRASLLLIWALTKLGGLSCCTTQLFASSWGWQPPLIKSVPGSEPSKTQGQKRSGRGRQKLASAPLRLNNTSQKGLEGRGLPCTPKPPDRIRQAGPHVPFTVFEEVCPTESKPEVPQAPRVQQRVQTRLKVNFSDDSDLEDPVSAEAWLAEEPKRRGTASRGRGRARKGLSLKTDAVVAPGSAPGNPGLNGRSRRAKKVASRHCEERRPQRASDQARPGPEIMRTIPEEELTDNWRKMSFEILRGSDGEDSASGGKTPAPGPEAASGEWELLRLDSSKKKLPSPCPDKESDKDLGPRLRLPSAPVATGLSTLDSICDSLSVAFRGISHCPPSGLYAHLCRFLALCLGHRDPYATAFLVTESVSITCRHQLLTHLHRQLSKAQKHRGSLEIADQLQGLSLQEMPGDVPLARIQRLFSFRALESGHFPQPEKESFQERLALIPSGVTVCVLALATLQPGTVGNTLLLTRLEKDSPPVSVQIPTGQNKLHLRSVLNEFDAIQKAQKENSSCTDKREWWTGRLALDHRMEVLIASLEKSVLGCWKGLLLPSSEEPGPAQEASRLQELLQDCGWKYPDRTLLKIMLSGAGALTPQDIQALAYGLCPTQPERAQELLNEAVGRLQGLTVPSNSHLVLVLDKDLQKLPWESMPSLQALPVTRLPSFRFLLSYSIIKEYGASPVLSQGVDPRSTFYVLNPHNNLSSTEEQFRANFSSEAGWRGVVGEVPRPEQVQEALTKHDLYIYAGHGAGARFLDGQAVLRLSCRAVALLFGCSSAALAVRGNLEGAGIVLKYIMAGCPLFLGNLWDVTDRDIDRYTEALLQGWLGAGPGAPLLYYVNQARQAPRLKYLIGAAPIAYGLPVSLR
Description: The substrate used in this Example is (Rad21)2-Rh110, which has two Rad21 peptide molecules (Asp-Arg-Glu-Ile-Nle-Arg) conjugated to one molecule of Rhodamine 110 (Rh110) (CPC Scientific, Sunnyvale Calif.). The assay was set up using 384-well low volume black polystyrene plates (Corning, N.Y.). Fifteen micro liter of activated Separase (˜5 ng) was mixed with 5 μl of test compound. The cleavage buffer (CB) used to dilute reagents was (30 mM Hepes-KOH pH7.7, 50 mM NaCl, 25 mM NaF, 25 mM KCl, 5 mM MgCl2, 1.5 mM ATP, and 1 mM EGTA). The mixture was incubated at room temperature for 1 h, and then 5 μl of 0.2 mM substrate (Rad21)2-Rh110 was added. The positive control contained Separase, substrate and CB without the test compound. The negative control contained substrate and CB only. After the reaction mixture was incubated at 37° C. for 3 h, the relative fluorescence intensity was measured (without stopping the enzymatic activity) at λex=390 nm/λem=450 nm for […] (AMC) released from Rad21-MCA or λex=490 nm/λem=528 nm for Rh110 released from (Rad21)2-Rh110 using a Synergy™ 4 Multi-Mode Microplate Reader (BioTek Instruments Inc., Winooski, Vt.).
Different amounts of Sepin-1 were mixed with activated Separase for 30 min before substrate (Rad21)2-Rh110 was added. After 3 h incubation at 37° C., the fluorescence intensity of Rh110 was determined. IC50 was calculated using either KaleidaGraph program (Synerge software, Reading, Pa.) or four parameter logistic equation (4-parameter dose-response curve fit): Inhibition of Activity (%)=min+(max−min)/{1+(log [M]/IC50)}^Hill Slop, where “min” and “max” represent minimal and maximal activity inhibition, respectively. Hill Slop is the slope of the curve at its midpoint. To identify the mode of Sepin-1 interacting with Separase, different amounts of both Sepin-1 and (Rad21)2-Rh110 were used in the Separase activity assay.

[1] = tested on: MC1 triple-negative breast tumor xenograft; assay: Growth inhibition of patient-derived xenograft MC1; format: in vivo, SCID-beige mice; settings: 10 mg/kg intraperitoneal injection, three week treatment
From the text: Patient-derived xenograft (PDX) lines MC1 (ER− PR− HER2−) (Proc Natl Acad Sci USA. 100, 2003, 3983-3988) and BCM-5471 (ER− PR− HER2−) (Cancer Res. 73, 2013, 4885-4897) were maintained as described (Cancer Res. 73, 2013, 4885-4897) by serial transplantation into SCID Beige immunocompromised host mice whose endogenous mammary epithelium was removed surgically (Cancer Res. 19, 1959, 515-20).
For treatment studies, MCF7 xenografts (ER+ PR+ HER2−) were generated by injection of one million cultured cells grown under standard in vitro conditions as previously described (Proc. Natl. Acad. Sci. U. S. A 105, 2008, 13033-13038). Donor tumors for PDX lines MC1 and BCM-5471 were divided into small fragments and retransplanted into the fat pat of recipient SCID Beige mice (5 mice per group). When the tumors reached approximately ˜200 mg, mice were treated with either vehicle or Sepin-1. Sepin-1 was injected at dose of 10 mg/kg daily for 5 days a week for 3 weeks. […] Vehicle injected mice served as controls. Size of the xenografts were measured every four days using calipers and tumor weight was estimated using the guidelines by NCI for xenograft evaluation (http://ncifrederick.cancer.gov/Lasp/Acuc/Frederick/Media/Documents/ACUC14.pdf). After 3 weeks treatment, the tumors were harvested and fixed in 10% Buffed Formalin Phosphate (Fisher Scientific, Pittsburgh, Pa.) overnight. […]

mice = assay: Repeated intraperitoneal dosing tolerability in mice; format: in vivo; settings: 10 mg/kg intraperitoneal injection daily for six weeks, 12 mice
[2] = tested on: Separase overexpressing primary pediatric glioblastoma samples; assay: MTT cytotoxicity assays in primary pediatric glioblastoma samples; format: cell-based; settings: two Separase overexpressing primary pediatric glioblastoma samples
Description: FIG. 10 provides data relating to separase overexpression in Pediatric glioblastoma (GBM) and the effect of Sepin-1 in inhibiting the growth of glioblastoma cells in vitro and in vivo. […] SCID-beige mice after two weeks of transplantation were treated at a dose of 10 mg/kg daily ip for 5 days a week for 4 weeks with either Sepin-1 or vehicle (n=6/group).

CC1(C)[N+]([O-])=c2ccc([N+](=O)[O-])cc2=[N+]1[O-] [Sepin-1, 2,2-dimethyl-5-nitro-2H-benzimidazole-1,3 dioxide]
IC50 (human cancer cell lines): ≥ 1 µM | effect of 0.1% Tween-20 or 1% BSA on inhibition kinetics (Separase; 0.1% Tween-20 or 1% BSA in the reaction mixture): did not affect the kinetics of Sepin-1 in inhibiting Separase activity | IC50 (Separase; calculated using KaleidaGraph, read-out: IC50 of Separase activity inhibition): 14.8 µM | IC50 (Separase; four-parameter fit, n=3, read-out: estimated IC50, four-parameter dose-response curve fit): 15.8 µM | dose dependence of Separase activity inhibition (Separase; FIG. 9B): dose-dependent inhibition of Separase activity | mode of inhibition (effect on Km and Vmax) (Separase; Lineweaver-Burk plot, Sepin-1 mixed with Separase 30 min before substrate): did not affect the Km but reduced the Vmax; also recorded: reduced the speed (Vmax) of substrate conversion by Separase, but not the Km | verified activity in inhibiting Separase enzymatic activity (Separase; re-test of HTS hits): highest activity | inhibition of growth of xenograft MC1 tumors versus vehicle [1]: 70% | weight loss and adverse effects (mice): no weight loss or apparent adverse effects | cell death in MTT cytotoxicity assays [2]: efficient cell death
